Assay results as given in patent US20050112742A1, “High temperature and alkaline stable catalase” (priority 2003, published 2005).
“Also recorded” adds a separate entry of the source.

Key:
[1] = target: T1, Thermus brockianus catalase (SEQ ID NO:2, SEQ ID NO:5) (Thermus brockianus, UniProt A0ABM7XHT8); assay: Peroxidase activity with peroxidase substrates; format: biochemical; conditions: hydrogen peroxide 1 mM, 20 mM Tris pH 8.0, 70° C.
T1 construct: in solution and immobilized on Eupergit C
T1 sequence (A0ABM7XHT8 6-291): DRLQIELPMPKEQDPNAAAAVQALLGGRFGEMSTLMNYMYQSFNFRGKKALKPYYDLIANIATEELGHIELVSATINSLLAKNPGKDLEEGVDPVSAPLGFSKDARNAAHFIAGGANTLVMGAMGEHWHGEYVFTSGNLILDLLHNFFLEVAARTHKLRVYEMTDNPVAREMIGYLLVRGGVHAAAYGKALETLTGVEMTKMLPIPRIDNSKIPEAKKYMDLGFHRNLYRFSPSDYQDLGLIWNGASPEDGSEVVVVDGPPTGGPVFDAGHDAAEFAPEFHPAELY
Experimental: The reactions were monitored spectrophotometrically at 460 and 420 nm, respectively. The substrates were dissolved in 20 mM Tris buffer, pH 8.0, and the assays were conducted at 70° C.

[2] = target: T1, Thermus brockianus catalase (SEQ ID NO:2, SEQ ID NO:5); assay: Michaelis-Menten kinetics of hydrogen peroxide decomposition (240 nm); format: biochemical; conditions: for Vmax: 20 mM Tris pH 8, 70° C.
Experimental: The buffer pH was adjusted to 8 at 70° C.
The constants were calculated by fitting the Michaelis-Menten equation to a plot of reaction velocity versus substrate concentration using nonlinear analysis (using GraFit Version 4, Erithacus Software Limited, Horley Surrey, U.K.). […] The enzyme was assayed as in Example I, except that it was preincubated with the inhibitor for 5 min prior to assay.
The turnover number was calculated assuming four active centers per catalase molecule.

[3] = target: Beef liver catalase (Bos taurus, UniProt P00432); conditions: Non-Immobilized Enzyme; inhibition observed at substrate concentrations above
Beef liver catalase, sequence (P00432 whole entry): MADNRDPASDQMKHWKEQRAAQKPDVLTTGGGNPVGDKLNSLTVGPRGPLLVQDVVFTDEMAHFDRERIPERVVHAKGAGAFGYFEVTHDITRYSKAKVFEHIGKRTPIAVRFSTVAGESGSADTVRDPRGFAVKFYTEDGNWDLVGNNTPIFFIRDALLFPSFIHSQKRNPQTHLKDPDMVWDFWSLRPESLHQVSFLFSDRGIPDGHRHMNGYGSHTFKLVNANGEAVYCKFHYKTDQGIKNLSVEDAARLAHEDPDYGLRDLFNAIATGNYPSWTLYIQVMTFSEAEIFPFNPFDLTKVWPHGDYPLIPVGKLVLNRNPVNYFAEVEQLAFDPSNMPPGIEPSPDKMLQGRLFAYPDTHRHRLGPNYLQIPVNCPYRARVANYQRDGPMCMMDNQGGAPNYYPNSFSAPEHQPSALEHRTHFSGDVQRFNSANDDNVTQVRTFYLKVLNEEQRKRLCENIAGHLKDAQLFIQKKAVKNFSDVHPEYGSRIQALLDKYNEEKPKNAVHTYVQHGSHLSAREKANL

[4] = system: Thermoascus aurantiacus catalase; conditions: cited from earlier work
[5] = system: Thermoleophilum album catalase; conditions: cited from earlier work
[6] = system: Bacillus sp. catalase or catalase-peroxidase; conditions: cited from earlier work
[7] = system: E. coli catalase or catalase-peroxidase; conditions: Table 3; cited from earlier work
[8] = system: R. capsulatus catalase or catalase-peroxidase; conditions: Table 3; cited from earlier work
[9] = system: N. crassa catalase or catalase-peroxidase; conditions: cited from earlier work
[10] = system: Vitreoscilla sp. catalase or catalase-peroxidase; conditions: Table 3; cited from earlier work
[11] = system: M. tuberculosis catalase or catalase-peroxidase; conditions: cited from earlier work
[12] = system: A. nidulans catalase or catalase-peroxidase; conditions: cited from earlier work
[13] = system: T. brockianus catalase; format: biochemical, Thermus brockianus
[14] = system: Archaeoglobus fulgidus recombinant catalase-peroxidase (putative perA gene); conditions: in words; cited from earlier work
[15] = substrate: OO; assay: purified protein, by the assay type
[16] = Stability of immobilized catalase; format: physicochemical; conditions: 70° C.
Experimental: For beef liver catalase, the stability at 70° C. and pH 10 increased from no stability to being stable for 5 minutes. The A. niger catalase was stable for at least 6 hours under these conditions. The stability of immobilized T. brockianus catalase is assayed as done with immobilized beef liver catalase.

[17] = H2O2 concentration showing substrate inhibition

Molecule: COc1cc(-c2ccc(N)c(OC)c2)ccc1N [o-dianisidine]
- peroxidase activity ([1]; substrate 0.5 mM, 460 nm): absence of peroxidase activity

Molecule: CCn1c(=NN=c2sc3cc(S(=O)(=O)O)ccc3n2CC)sc2cc(S(=O)(=O)O)ccc21 [2,2′-azino-bis(3-ethylbenzothiazoline-6-sulfonic acid)]
- peroxidase activity ([1]; substrate 10 mM, 420 nm): absence of peroxidase activity

Molecule: OO [hydrogen peroxide]
- Vmax ([2]; hydrogen peroxide 3 to 450 mM): 20.3 mM/min·mg protein
- Vmax ([2]; Table 3): 20.3 mM/min/mg
- turnover number (kcat) ([2]; calculated assuming four active centers per catalase molecule, pH 8, 70° C.): 6000 s⁻¹
- H2O2 Inhibition ([2]; no inhibition observed for H2O2 concentrations up to 450 mM, pH 8, 70° C.): no apparent substrate inhibition/inactivation; also recorded: not inhibited; also recorded: None^c
- substrate inhibition concentration (footnote b) [3]: ^bApproximated value - inhibition observed at substrate concentrations above 100 mM.
- H2O2 Inhibition [4, 17]: 60 mM
- Kcat ([4]; Table 3): 107000 s⁻¹
- Km ([4]; Table 3): 48 mM
- H2O2 Inhibition [5, 17]: 20 mM
- Km ([5]; Table 3): 15 mM
- Vmax ([5]; Table 3): 2.3 mM/min/mg
- H2O2 Inhibition [6, 17]: 30 mM
- Km ([6]; Table 3): 6.8 mM
- Kcat [7]: 16300 s⁻¹
- Km [7]: 3.9 mM
- Km [8]: 4.2 mM
- Km ([9]; Table 3): 25 mM
- H2O2 Inhibition ([9]; no inhibition observed for H2O2 concentrations up to 200 mM): None^b
- Kcat [10]: 26700 s⁻¹
- Km [10]: 16 mM
- Km ([11]; Table 3): 5.2 mM
- Kcat [11]: 10100 s⁻¹
- H2O2 Inhibition [12, 17]: 10 mM
- Kcat ([12]; Table 3): 7170 s⁻¹
- Km ([12]; Table 3): 4.3 mM

Molecule: Nc1nc[nH]n1 [3-amino-1,2,4-triazole]
- inhibition of T. brockianus catalase [13]: completely inhibited
- inhibition of T. brockianus catalase (in words, no concentration given) [13]: inhibition
- inhibition by 3-amino-1,2,4-triazole [14]: inhibited

B1: Thermus brockianus catalase (SEQ ID NO:2, SEQ ID NO:5) (Thermus brockianus) (protein)
chain: T1 sequence (A0ABM7XHT8 6-291)
- Km ([15]; other: 20 mM Tris pH 8, 70° C., hydrogen peroxide 3 to 450 mM, pH 8.0, 70.0 °C): 35.5 mM
- Km ([15]; other: Immobilized Enzyme, packed column, PBS pH 7.2, 20 mL/min, optimum temperature, pH 7.2): 17 mM
- Km ([15]; other: Non-Immobilized Enzyme, optimum temperature and pH): 35 mM

B2: Beef Liver: beef liver catalase, commercial comparison enzyme (protein, UniProt P00432 2-527, looked up)
Catalase: ADNRDPASDQMKHWKEQRAAQKPDVLTTGGGNPVGDKLNSLTVGPRGPLLVQDVVFTDEMAHFDRERIPERVVHAKGAGAFGYFEVTHDITRYSKAKVFEHIGKRTPIAVRFSTVAGESGSADTVRDPRGFAVKFYTEDGNWDLVGNNTPIFFIRDALLFPSFIHSQKRNPQTHLKDPDMVWDFWSLRPESLHQVSFLFSDRGIPDGHRHMNGYGSHTFKLVNANGEAVYCKFHYKTDQGIKNLSVEDAARLAHEDPDYGLRDLFNAIATGNYPSWTLYIQVMTFSEAEIFPFNPFDLTKVWPHGDYPLIPVGKLVLNRNPVNYFAEVEQLAFDPSNMPPGIEPSPDKMLQGRLFAYPDTHRHRLGPNYLQIPVNCPYRARVANYQRDGPMCMMDNQGGAPNYYPNSFSAPEHQPSALEHRTHFSGDVQRFNSANDDNVTQVRTFYLKVLNEEQRKRLCENIAGHLKDAQLFIQKKAVKNFSDVHPEYGSRIQALLDKYNEEKPKNAVHTYVQHGSHLSAREKANL
- stability, not immobilized ([16]; pH 10, before immobilization): no stability
- time stable, immobilized enzyme ([16]; pH 10, immobilized): 5 min
